Laboratory results published in ChEMBL document CHEMBL1201862, “PubChem BioAssay data set” (2004).
Calls of active or inactive are those of the source.

Tests used:
[1] = Counterscreen for inhibitors of Trypanosoma brucei methionyl tRNA synthetase (MetRS): Luminescence-based cell-based high throughput dose response assay to identify compounds that are cytotoxic to Jurkat human T lymphocyte cells.; format: functional
[2] = biological target: T1, Methionyl-tRNA synthetase, putative (Trypanosoma brucei brucei, UniProt Q38C91); format: functional, Trypanosoma brucei brucei strain 927/4 GUTat10.1
T1 sequence (Q38C91 whole entry): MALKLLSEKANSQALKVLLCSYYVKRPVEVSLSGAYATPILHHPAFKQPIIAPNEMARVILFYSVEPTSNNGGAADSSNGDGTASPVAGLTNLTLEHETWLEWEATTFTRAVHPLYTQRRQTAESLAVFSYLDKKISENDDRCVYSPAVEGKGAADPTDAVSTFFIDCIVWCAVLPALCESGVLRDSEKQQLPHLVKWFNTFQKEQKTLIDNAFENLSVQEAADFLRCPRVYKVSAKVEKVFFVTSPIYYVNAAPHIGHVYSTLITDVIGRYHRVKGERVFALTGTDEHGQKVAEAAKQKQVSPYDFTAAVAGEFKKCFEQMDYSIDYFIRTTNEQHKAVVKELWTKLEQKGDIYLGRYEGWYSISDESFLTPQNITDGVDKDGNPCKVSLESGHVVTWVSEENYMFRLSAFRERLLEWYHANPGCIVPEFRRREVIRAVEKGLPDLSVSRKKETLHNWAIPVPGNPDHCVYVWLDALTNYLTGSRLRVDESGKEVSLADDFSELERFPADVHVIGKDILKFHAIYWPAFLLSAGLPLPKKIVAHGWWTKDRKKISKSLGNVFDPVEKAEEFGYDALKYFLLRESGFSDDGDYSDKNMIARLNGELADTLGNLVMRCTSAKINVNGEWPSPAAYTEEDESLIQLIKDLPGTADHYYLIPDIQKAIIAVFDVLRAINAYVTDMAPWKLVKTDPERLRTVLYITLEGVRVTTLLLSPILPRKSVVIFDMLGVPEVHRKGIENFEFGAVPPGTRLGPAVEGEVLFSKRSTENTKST

[3] = biological target: T1, Methionyl-tRNA synthetase, putative; format: functional, Trypanosoma brucei brucei strain 927/4 GUTat10.1; remark: listed apart in the source
[4] = viability loss in CEM21 cells – cell-based, CellTiter-Glo luminescence, cherry-picked, cytotoxicity control for viral fusion inhibitor project, dose response (AID 652042); format: functional;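 also: potency for signal decrease meaning cytotoxicity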
[5] = NIH3T3 cell viability loss – ATP luminescence, mouse fibroblasts, counter-screen, dose response (AID 2010); format: functional, cell-based;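 also: cells exposed to compound for about 90 hours before reading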
[6] = viability of PTEN-deleted HCT116 cells – cell-based, HCT116 PTEN knockout, dose response (AID 1047); format: functional;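 also: HCT116 colon tumor cells with PTEN knocked out; cells exposed to compound for 60 hours before readout; potency for loss of cell viability measured by luminescence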
[7] = viability of HCT116 lacking mutant beta-catenin – cell-based, human colon tumor, dose response (AID 1045); format: functional;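 also: HCT116 colon tumor cells with beta catenin knocked out; cells exposed to compound for 60 hours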
[8] = Trypanosoma cruzi growth suppression in host cells – NIH3T3 host cells, beta-gal luminescence, confirmation (AID 2044); format: functional, cell-based;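 also: intracellular parasites grown in NIH/3T3 mouse fibroblasts as host cells; luminescent beta-galactosidase reporter signal from transgenic T. cruzi replicating inside host cells; inhibitors lower the luminescence signal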
[9] = HIV-1 AD8 envelope cell-cell fusion blockers – cherry-pick, dose response (AID 652062); format: functional, cell-based;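 also: luciferase signal from cell-cell fusion driven by HIV-1 clade B AD8 Env; potency is for inhibitors of fusion seen as a drop in luminescence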
[10] = blockers of HIV-1 ZM109 envelope-driven cell-cell fusion – HeLa effector, CEM target cells, luciferase, cherry-pick, dose response (AID 652058); format: functional, cell-based;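 also: luciferase signal from HIV-1 Env mediated cell-cell fusion of effector and target cells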
[11] = biological target: T2, Microphthalmia-associated transcription factor (Homo sapiens, UniProt O75030); experiment: reducers of TRPM1 reporter luminescence, concentration series – cell-based, SK-MEL-5, cherry-picked, set 3, MITF inhibitor project, dose response (AID 493073); format: functional;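 also: SK-MEL-5 melanoma cells with luciferase driven by the MITF target TRPM1 promoter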
T2 sequence (O75030 whole entry): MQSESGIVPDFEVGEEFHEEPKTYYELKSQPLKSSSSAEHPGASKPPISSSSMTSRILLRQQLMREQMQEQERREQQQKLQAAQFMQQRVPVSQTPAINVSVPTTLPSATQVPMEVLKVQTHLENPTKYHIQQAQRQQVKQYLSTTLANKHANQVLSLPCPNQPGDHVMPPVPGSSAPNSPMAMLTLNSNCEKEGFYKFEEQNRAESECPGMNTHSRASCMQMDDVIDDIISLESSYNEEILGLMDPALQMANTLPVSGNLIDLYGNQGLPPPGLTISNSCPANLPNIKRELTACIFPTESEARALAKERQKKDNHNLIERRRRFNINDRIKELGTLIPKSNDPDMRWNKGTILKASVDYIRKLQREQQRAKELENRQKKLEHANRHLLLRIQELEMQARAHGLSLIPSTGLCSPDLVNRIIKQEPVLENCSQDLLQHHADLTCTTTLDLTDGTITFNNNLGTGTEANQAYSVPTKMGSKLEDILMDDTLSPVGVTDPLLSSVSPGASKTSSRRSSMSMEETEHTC

Protein skinhead-1 = biological target: T3, Protein skinhead-1 (Caenorhabditis elegans, UniProt P34707); format: functional
T3 sequence (P34707 whole entry): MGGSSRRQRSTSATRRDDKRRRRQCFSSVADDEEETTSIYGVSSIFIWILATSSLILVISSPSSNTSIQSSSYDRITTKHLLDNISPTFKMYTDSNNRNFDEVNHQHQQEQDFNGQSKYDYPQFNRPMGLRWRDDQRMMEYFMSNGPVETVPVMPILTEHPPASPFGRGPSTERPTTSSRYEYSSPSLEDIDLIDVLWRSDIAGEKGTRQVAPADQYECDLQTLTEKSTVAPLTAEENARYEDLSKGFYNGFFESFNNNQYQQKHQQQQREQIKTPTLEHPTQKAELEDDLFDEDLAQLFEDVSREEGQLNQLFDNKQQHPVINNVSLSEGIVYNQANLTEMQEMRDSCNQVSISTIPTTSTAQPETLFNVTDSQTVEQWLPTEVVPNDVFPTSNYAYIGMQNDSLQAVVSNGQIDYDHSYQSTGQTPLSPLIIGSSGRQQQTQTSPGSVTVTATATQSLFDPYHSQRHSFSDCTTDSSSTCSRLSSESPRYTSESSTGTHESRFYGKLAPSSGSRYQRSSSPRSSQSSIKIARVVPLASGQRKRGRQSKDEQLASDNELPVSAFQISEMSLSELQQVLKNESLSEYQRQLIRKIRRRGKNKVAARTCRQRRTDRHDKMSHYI

[12] = biological target: Disintegrin and metalloproteinase domain-containing protein 17 (Homo sapiens, UniProt P78536); experiment: exosite inhibitors of ADAM17, dose response, biochemical (AID 743260)
[13] = inhibition of ADAM10 peptide cleavage – biochemical, FRET peptide substrate, recombinant human ADAM10, selectivity assay for ADAM17 exosite inhibitor project, dose response (AID 743259);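 also: ADAM10 enzyme cleaving a FRET peptide substrate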
[14] = HIV-1 Vif–A3G interaction blockers – biochemical, TR-FRET, GST-Vif 1-94, biotin-A3G peptide, dose response retest, primary screen (AID 1117319); format: functional;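 also: TR-FRET signal of purified GST-Vif binding a biotinylated A3G peptide; inhibitors lower the FRET signal by blocking Vif and A3G binding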
[15] = biological target: T4, Rac GTPase-activating protein 1 (Homo sapiens, UniProt Q9H0H5); experiment: blockers of MgcRacGAP-driven Rac1 GTP hydrolysis – biochemical, ADP Hunter fluorescence, primary and confirmatory, confirmation (AID 624330); format: functional
T4 sequence (Q9H0H5 whole entry): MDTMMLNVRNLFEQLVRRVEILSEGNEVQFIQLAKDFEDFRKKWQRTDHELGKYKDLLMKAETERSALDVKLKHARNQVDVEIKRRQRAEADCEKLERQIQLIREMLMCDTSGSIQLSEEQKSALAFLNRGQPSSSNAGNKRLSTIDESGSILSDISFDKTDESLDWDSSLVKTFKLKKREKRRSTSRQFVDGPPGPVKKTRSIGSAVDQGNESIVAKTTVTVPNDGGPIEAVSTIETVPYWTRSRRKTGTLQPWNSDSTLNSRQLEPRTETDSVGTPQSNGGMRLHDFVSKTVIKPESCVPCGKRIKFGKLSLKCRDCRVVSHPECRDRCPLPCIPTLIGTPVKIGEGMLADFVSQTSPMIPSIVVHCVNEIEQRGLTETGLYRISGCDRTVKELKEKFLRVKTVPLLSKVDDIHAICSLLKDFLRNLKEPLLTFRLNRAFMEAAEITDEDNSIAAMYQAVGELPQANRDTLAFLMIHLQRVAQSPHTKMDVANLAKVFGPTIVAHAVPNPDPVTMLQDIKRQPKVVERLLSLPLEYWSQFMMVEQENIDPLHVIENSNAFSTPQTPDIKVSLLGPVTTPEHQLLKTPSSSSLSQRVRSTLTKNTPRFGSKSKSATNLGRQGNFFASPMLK

[16] = viability loss in THP-1 monocytes – THP-1 cells, cytotoxicity control for Vif-APOBEC3G degradation inhibitor project, dose response (AID 1117359); format: functional; details: THP-1
[17] = growth inhibition of PfATP4-mutant resistant parasites – NITD609-resistant line, SYBR Green, dry powder, dose response (AID 1159571); format: functional, cell-based;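 also: parasites synchronized at ring stage by sorbitol before testing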
[18] = P. falciparum Dd2 growth inhibitors, dose response, SYBR Green, cherry-picked samples (AID 1159567); format: functional, cell-based
[19] = growth inhibition of yeast DHODH-expressing 3D7 parasites – SYBR Green, dry powder samples, dose response (AID 1159570); format: functional, cell-based;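 also: parasite growth measured after 72 hours of compound exposure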
[20] = Dd2 malaria parasite growth inhibition potency – SYBR Green, dry powder samples, dose response (AID 1159566); format: functional, cell-based;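 also: potency for growth inhibition with lower SYBR green DNA signal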
[21] = blockers of HIV-1 envelope-mediated cell-cell fusion – cherry-pick, dose response (AID 652057); format: functional, cell-based
[22] = Luminescence Cell-Based Dose Retest to Confirm Inhibitors of Cancer Stem Cells. [Related pubchem assays (depositor defined):AID2717, AID2721]; format: functional; details: Homo sapiens
[23] = off-target signal loss in HeLa-CEM21 co-culture – HeLa F-luc CTL cells, cherry-picked, counter-screen for HIV-1 Env fusion inhibitor project, dose response (AID 652040); format: functional, cell-based;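 also: potency for signal decrease marking cytotoxic or nonspecific inhibition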
[24] = viability of uninfected HEp-2 cells – cell-based, HTS, cytotoxicity control for RSV inhibitor project, dose response (AID 2410); format: functional; details: human respiratory syncytial virus

Disintegrin and metalloproteinase domain-containing protein 17, sequence (P78536 whole entry, the tested form may be a part): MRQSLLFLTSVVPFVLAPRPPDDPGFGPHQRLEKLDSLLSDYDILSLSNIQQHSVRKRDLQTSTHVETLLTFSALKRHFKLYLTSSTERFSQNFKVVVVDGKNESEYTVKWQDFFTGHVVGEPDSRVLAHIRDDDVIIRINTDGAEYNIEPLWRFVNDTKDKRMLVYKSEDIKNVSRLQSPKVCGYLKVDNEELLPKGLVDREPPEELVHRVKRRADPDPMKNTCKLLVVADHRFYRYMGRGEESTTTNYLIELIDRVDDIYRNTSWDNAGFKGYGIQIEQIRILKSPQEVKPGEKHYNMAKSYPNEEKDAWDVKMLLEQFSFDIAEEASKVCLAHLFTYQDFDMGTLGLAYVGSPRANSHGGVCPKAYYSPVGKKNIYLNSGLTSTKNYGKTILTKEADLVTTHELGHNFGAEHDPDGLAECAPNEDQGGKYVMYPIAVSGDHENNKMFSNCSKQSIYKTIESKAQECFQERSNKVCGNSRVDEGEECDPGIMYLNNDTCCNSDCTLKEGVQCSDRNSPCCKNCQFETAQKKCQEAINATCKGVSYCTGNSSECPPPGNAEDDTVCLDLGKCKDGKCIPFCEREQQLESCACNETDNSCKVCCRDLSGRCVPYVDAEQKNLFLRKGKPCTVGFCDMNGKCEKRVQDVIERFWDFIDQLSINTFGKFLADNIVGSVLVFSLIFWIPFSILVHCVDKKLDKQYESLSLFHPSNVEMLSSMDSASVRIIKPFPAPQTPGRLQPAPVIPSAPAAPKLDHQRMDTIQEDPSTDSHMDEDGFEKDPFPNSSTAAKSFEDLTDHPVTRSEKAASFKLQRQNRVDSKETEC

CN(C)S(=O)(=O)c1cccc(NC(=O)c2ccc(-n3cncn3)c([N+](=O)[O-])c2)c1
IC50 [1]: 83.3 µM (inactive) | IC50 [2]: 9.02 µM (active) | IC50 [3]: 4.49 µM (active)

c1coc(CNc2c3c(nc4ccccc24)CCC3)c1
AC50 [4]: 65 µM (active) | EC50 [5]: > 60 µM (not active) | EC50 [6]: 22.5 µM (active) | EC50 [7]: 27.1 µM (active) | EC50 [8]: 2.41 µM (active) | AC50 [9]: 32.9 µM (active)

CCn1c(/C=C/N(C)c2ccccc2)[n+](CC)c2cc(Cl)ccc21
AC50 [4]: 35.5 µM (active) | AC50 [10]: 59.3 µM (active) | EC50 [5]: 21.5 µM (active) | AC50 [11]: 6.86 µM (active) | EC50 [8]: 0.286 µM (active) | AC50 [9]: 9.72 µM (active)

COc1ccc(NC(=O)c2ccc3c(c2)OCO3)cc1Cl
IC50 (Protein skinhead-1): > 100 µM (inactive)

O=C(NCCCCc1ccccc1)Nc1ccc(F)cc1
IC50 [1]: 83.4 µM (inactive) | IC50 [2]: 119 µM (inactive) | IC50 [3]: 44.4 µM (inactive)

Cc1ccc(/N=C2\C(Cl)=C(O)OC2OC(=O)c2ccc(C)cc2)cc1 (stereo unspecified)
IC50 [12]: > 69.5 µM (inactive) | IC50 [13]: > 7.73 µM (active)

O=C(OC(C(=O)c1c[nH]c2ccccc12)c1ccccc1)c1cnccn1 (stereo unspecified)
IC50 [1]: 83.3 µM (inactive) | IC50 [2]: 59.3 µM (inactive) | IC50 [3]: 32.3 µM (inactive)

Cc1ccc(C(=O)OCc2cn3ccccc3n2)cc1
IC50 [14]: > 100 µM (active)

Nc1ccc(N=Nc2ccc(O)cc2)c(N)n1
IC50 [15]: 8.44 µM (active) | CC50 [16]: 25.8 µM (active)

O=C(Nc1ccccc1)N1CCCCN2[C@@H](CO)[C@H](c3ccc(C#Cc4cccnc4)cc3)[C@@H]2C1
AC50 [17]: 0.573 µM (active) | AC50 [18]: 0.633 µM (active) | AC50 [19]: 0.476 µM (active) | AC50 [20]: 0.552 µM (active)

CCN(CC)S(=O)(=O)c1cc(NC(=O)Cc2ccc(S(=O)(=O)N3CCOCC3)s2)ccc1Cl
IC50 [12]: > 69.5 µM (inactive) | IC50 [13]: 11.4 µM (inactive)

CN(c1ccccc1)c1nc2ccsc2c(=O)s1
IC50 (Protein skinhead-1): > 100 µM (inactive)

Cc1cccc(C)c1N(CC(=O)Nc1cccc(N(C)S(C)(=O)=O)c1)S(C)(=O)=O
IC50 (Protein skinhead-1): > 100 µM (inactive)

O=C(COC(=O)Cc1ccc(Cl)cc1)NCc1ccco1
CC50 [16]: > 40 µM (active)

CCCn1c(O)nnc1SCC(=O)c1ccc2c(c1)OCCO2
IC50 (Protein skinhead-1): > 100 µM (inactive)

CC(C)C[C@H](CO)N(Cc1ccccc1)S(=O)(=O)N(Cc1ccccc1)[C@@H](CO)CC(C)C
AC50 [4]: 9.89 µM (active) | AC50 [10]: 3.38 µM (active) | AC50 [21]: 2.8 µM (active) | AC50 [22]: 3.47 µM (active) | AC50 [9]: 8.16 µM (active) | AC50 [23]: 12.4 µM (active)

COc1ccc(NC(=O)CSc2nnc(C)n2Cc2ccccc2)cc1
IC50 [14]: > 12.5 µM (active)

Cc1cccc(COc2ccccc2C(=O)N(C)CC(=O)Nc2cccc(F)c2)c1
IC50 [12]: > 69.5 µM (inactive) | IC50 [13]: 25.5 µM (inactive)

Cc1ccccc1-c1nc(S(=O)(=O)c2ccc(Br)cc2)c(NCc2cccnc2)o1
CC50 [24]: 21.9 µM (active) | IC50 [12]: > 69.5 µM (inactive) | IC50 [13]: > 69.5 µM (inactive)

O=C(NC1CCCCN(Cc2cccc(Cl)c2)C1=O)c1ccc(COc2ccccc2)cc1 (stereo unspecified)
IC50 [12]: > 69.5 µM (inactive) | IC50 [13]: 20.7 µM (inactive)
